# Results taken from patent US8722072B2, “Acaricidal and/or insecticidal active ingredient combinations” (priority 2010, dated 2014).
# How the values were obtained:
# Format in all cases: in vivo
# [1] = tested on: larvae of the seven-spotted ladybird (Coccinella septempunctata); test: Example 13: Coccinella septempunctata larvae - test on plums (beneficial species); conditions: plum leaves, spray
# Description: Coccinella septempunctata/Larvae—Test on Plums
# An appropriate solution for application is prepared by diluting the respective formulation to the desired concentration.
# Plum leaves colonized by larvae of the seven-spotted ladybird (Coccinella septempunctata) are treated by being sprayed with the application solution at the desired concentration.
# After the desired time, the destruction is determined in %. 100% here means that all of the ladybird larvae have been killed; 0% means that no ladybird larvae have been killed. The destruction figures ascertained are calculated by the Colby formula.
# Hemitarsonemus latus = test: Example 7: field test on bell peppers against Hemitarsonemus latus; conditions: adults on leaves, 2 days after treatment
# Description: In plots measuring approximately 6 m^2, bell peppers of the cultivar “California Wonder” (growth stage 75) are treated in three replications against Hemitarsonemus latus. Application takes place using a sprayer at 2.5 bar pressure. […] The water application rate is 300 l/ha.
# Evaluation is made 2 days after treatment, by scoring the destruction of the adults on the leaves.
# Tetranychus urticae [2] = test: Example 6: field test on aubergines (Suqi qie) against Tetranychus urticae, ready-prepared mixture 20:1; conditions: for Destruction (% Abbott) 21 days (eggs) / Destruction (% Abbott) 21 days (males) / Destruction (% Abbott) 21 days (population): 21 days after treatment; for Destruction (% Abbott) 1 day: males on leaves, 1 day after treatment; for Destruction (% Abbott) 21 days (population): total population
# Description: In plots measuring approximately 8 m^2, aubergines (growth stage 15) of the cultivar “Suqi qie” are treated in three replications against Tetranychus urticae. Application takes place using a back-mounted sprayer. […] The water application rate is 450 l/ha.
# Evaluation is made 1 day after treatment, by scoring the destruction of the males on the leaves.
# A further evaluation is made 21 days after treatment, by scoring the destruction of the eggs, the destruction of the males, and the total population on the leaves.
# [3] = tested on: Frankliniella occidentalis; test: Example 9: field test on bell peppers against Frankliniella occidentalis; conditions: for Destruction (% Abbott) 7 days: adults in the flowers, 7 days after the second treatment; for Destruction (% Abbott) 14 days: mixed population in the flowers, 14 days after the second treatment
# Description: In plots measuring approximately 10 m^2, bell peppers of the cultivar “Italiano verde” are treated in three replications against Frankliniella occidentalis. Application is made using a back-mounted spray (10 bar). […] The water application rate is 750 l/ha. Two applications are carried out, at an interval of 7 days.
# Evaluation is made 7 days after the second treatment, by scoring the destruction of the adults in the flowers.
# Evaluation is made 14 days after the second treatment, by scoring the destruction of the mixed population in the flowers.
# Tetranychus urticae [4] = test: Example 3: field test on tomatoes against Tetranychus urticae; conditions: adults on leaves, 3 days after treatment
# Description: In plots measuring approximately 6 m^2, tomatoes of the cultivar “Leader” are treated in three replications against Tetranychus urticae. Application takes place using a back-mounted spray (4.5 bar). […] The water application rate is 1000 l/ha.
# Evaluation is made 3 days after treatment, by scoring the destruction of the adults on the leaves.
# Tetranychus urticae [5] = test: Example 1: field test on aubergines against Tetranychus urticae; conditions: for Destruction (% Abbott) 1 day: 1 day after treatment; for Destruction (% Abbott) 55 days: 55 days after treatment; for Destruction (% Abbott) 45 days: 45 days after treatment
# Description: In plots measuring approximately 14 m^2, aubergines (around 11 weeks after planting out) of the cultivar “Heilongchangqie” are treated in three replications against Tetranychus urticae. Application takes place using a sprayer. […] The water application rate is 450 l/ha.
# Evaluation is made 1 day and 55 days after treatment, by scoring the destruction of the eggs on the leaves.
# A further evaluation is made 45 and 55 days after treatment, by scoring the destruction of the nymphs on the leaves.
# [6] = tested on: two-spotted spider mite (Tetranychus urticae); test: Example 8: Tetranychus urticae - test on cotton; conditions: cotton plants, spray
# Description: Tetranychus urticae—Test on Cotton
# • Solvent: 7 parts by weight of dimethylformamide • Emulsifier: 2 parts by weight of alkylaryl polyglycol ether
# (§1) An appropriate preparation of active ingredient is prepared by mixing 1 part by weight of active ingredient with the stated amounts of solvent and emulsifier and diluting the concentrate with emulsifier-containing water to the desired concentration.
# Cotton plants (Gossypium hirsutum) infected with the two-spotted spider mite (Tetranychus urticae) are treated by being sprayed with the preparation of active ingredient in the desired concentration.
# After the desired time, a determination is made of the destruction in %. 100% here means that all of the mites have been killed; 0% means that no mites have been killed. The destruction figures ascertained are calculated by the Colby formula.
# Tetranychus urticae [7] = test: Example 5: field test on roses (Freedom) against Tetranychus urticae; conditions: population on leaves, 1 day after treatment
# Description: In plots measuring approximately 14 m^2, roses (growth stage 46) of the cultivar “Freedom” in double rows are treated in three replications against Tetranychus urticae. Application takes place using a back-mounted spray. In this example, the mixture of the active ingredients Oberon, Example (I), and abamectin, Example (VI), is tested against the commercial standards abamectin (018 EC) and Oberon (240 SC) at the stated application rates and in the stated mixing ratios. The water application rate is 1000 l/ha.
# Evaluation is made 1 day after treatment, by scoring the destruction of the population on the leaves.
# Tetranychus urticae [8] = test: Example 4: field test on cotton plants against Tetranychus urticae; conditions: population on leaves, 13 days after treatment
# Description: In plots measuring approximately 15 m^2, cotton plants of the cultivar “BRS Aroeira” with a height of approximately 80 cm are treated in three replications against Tetranychus urticae. Application takes place using a spray at 2.5 bar. […] The water application rate is 200 l/ha.
# Evaluation is made 13 days after treatment, by scoring the destruction of the population on the leaves.
# [9] = tested on: whitefly (Bemisia tabaci); test: Example 11: Bemisia tabaci - test on cabbage; conditions: cabbage plants, spray
# Description: Bemisia tabaci—Test on Cabbage
# (§2) • Solvent: 7 parts by weight of dimethylformamide • Emulsifer: 2 parts by weight of alkylaryl polyglycol ether
# as §1
# Cabbage plants (Brassica oleracea) infested with whitefly (Bemisia tabaci) are treated by being sprayed with the preparation of active ingredient at the desired concentration.
# (§3) After the desired time, the destruction is determined in %. 100% here means that all of the whitefly have been killed; 0% means that no whitefly have been killed. The destruction figures ascertained are calculated by the Colby formula.
# [10] = tested on: whitefly (Bemisia tabaci); test: Example 10: Bemisia tabaci - test on cotton; conditions: cotton plants, spray
# Description: Bemisia tabaci—Test on Cotton
# as §2, §1
# Cotton plants (Gossypium hirsutum) infested with whitefly (Bemisia tabaci) are treated by being sprayed with the preparation of active ingredient at the desired concentration.
# as §3
# Tetranychus urticae [11] = test: Example 2: field test on roses (Blizard) against Tetranychus urticae; conditions: adults on leaves, 3 days after treatment
# Description: In plots measuring approximately 6 m^2, roses of the cultivar “Blizard” with an age of approximately 3 years are treated in three replications against Tetranychus urticae. Application takes place using a back-mounted spray (3.5 bar). […] The water application rate is 1320 l/ha. Evaluation is made 3 days after treatment, by counting the adults on the leaves/square inch. Subsequently, the activity is calculated as a percentage by the method of Henderson and Tilton.
# [12] = nymphs on leaves, 120 g a.i./ha
molecule,measurement,setting,value
abamectin [Abamectin (VI)],Destruction in % after 3d,[1]; 3 g ai/ha,63%
same,Destruction in % after 3d,[1]; 6 g ai/ha,100%
same,Destruction (% Abbott) 2 days,Hemitarsonemus latus; 10 g a.i./ha,0 % Abbott
same,Destruction (% Abbott) 21 days (eggs),Tetranychus urticae [2]; 10 g a.i./ha,0 % Abbott
same,Destruction (% Abbott) 1 day,Tetranychus urticae [2]; 10 g a.i./ha,33.3 % Abbott
same,Destruction (% Abbott) 21 days (males),Tetranychus urticae [2]; 10 g a.i./ha,45 % Abbott
same,Destruction (% Abbott) 21 days (population),Tetranychus urticae [2]; 10 g a.i./ha,47.6 % Abbott
same,Destruction (% Abbott) 7 days,[3]; 10.5 g a.i./ha,0 % Abbott
same,Destruction (% Abbott) 14 days,[3]; 10.5 g a.i./ha,0 % Abbott
same,Destruction (% Abbott) 14 days,[3]; 21 g a.i./ha,2.0 % Abbott
same,Destruction (% Abbott) 3 days,Tetranychus urticae [4]; 10 g a.i./ha,45.8 % Abbott
same,Destruction (% Abbott) 1 day,"Tetranychus urticae [5]; eggs on leaves, 10 g a.i./ha",19.8 % Abbott
same,Destruction (% Abbott) 55 days,"Tetranychus urticae [5]; eggs on leaves, 10 g a.i./ha",0 % Abbott
same,Destruction (% Abbott) 45 days,"Tetranychus urticae [5]; nymphs on leaves, 10 g a.i./ha",0 % Abbott
same,Destruction (% Abbott) 55 days,"Tetranychus urticae [5]; nymphs on leaves, 10 g a.i./ha",0 % Abbott
same,Destruction in % after 3d,[6]; 4 g ai/ha,10%
same,Activity (% Abbott) 1 day,Tetranychus urticae [7]; 6 g a.i./ha,27 % Abbott
same,Destruction (% Abbott) 13 days,Tetranychus urticae [8]; 7.2 g a.i./ha,16.5 % Abbott
same,Destruction in % after 9d,[9]; 6 g ai/ha,0%
same,Destruction in % after 9d,[9]; 15 g ai/ha,0%
same,Destruction in % after 7d,[10]; 6 g ai/ha,0%
same,Activity (% H. + T.) 3 days,Tetranychus urticae [11]; 10.5 g a.i./ha,0 % H. + T.
same,Activity (% H. + T.) 3 days,Tetranychus urticae [11]; 21 g a.i./ha,0 % H. + T.
"Cc1cc(C)c(C2=C(OC(=O)CC(C)(C)C)C3(CCCC3)OC2=O)c(C)c1 [Oberon (I), Spiromesifen]",Destruction in % after 3d,[1]; 60 g ai/ha,3%
same,Destruction in % after 3d,[1]; 120 g ai/ha,10%
same,Destruction (% Abbott) 2 days,Hemitarsonemus latus; 120 g a.i./ha,50 % Abbott
same,Destruction (% Abbott) 21 days (eggs),Tetranychus urticae [2]; 120 g a.i./ha,0 % Abbott
same,Destruction (% Abbott) 1 day,Tetranychus urticae [2]; 120 g a.i./ha,0 % Abbott
same,Destruction (% Abbott) 21 days (males),Tetranychus urticae [2]; 120 g a.i./ha,5 % Abbott
same,Destruction (% Abbott) 21 days (population),Tetranychus urticae [2]; 120 g a.i./ha,1.9 % Abbott
same,Destruction (% Abbott) 7 days,[3]; 105 g a.i./ha,3.3 % Abbott
same,Destruction (% Abbott) 14 days,[3]; 105 g a.i./ha,0 % Abbott
same,Destruction (% Abbott) 14 days,[3]; 210 g a.i./ha,0 % Abbott
same,Destruction (% Abbott) 3 days,Tetranychus urticae [4]; 120 g a.i./ha,25.0 % Abbott
same,Destruction (% Abbott) 1 day,"Tetranychus urticae [5]; eggs on leaves, 120 g a.i./ha",26.7 % Abbott
same,Destruction (% Abbott) 55 days,"Tetranychus urticae [5]; eggs on leaves, 120 g a.i./ha",0 % Abbott
same,Destruction (% Abbott) 45 days,Tetranychus urticae [5]; [12],14.8 % Abbott
same,Destruction (% Abbott) 55 days,Tetranychus urticae [5]; [12],24.1 % Abbott
same,Destruction in % after 3d,[6]; 100 g ai/ha,30%
same,Activity (% Abbott) 1 day,Tetranychus urticae [7]; 120 g a.i./ha,32.4 % Abbott
same,Destruction (% Abbott) 13 days,Tetranychus urticae [8]; 120 g a.i./ha,58.5 % Abbott
same,Destruction in % after 9d,[9]; 150 g ai/ha,55%
same,Destruction in % after 7d,[10]; 120 g ai/ha,70%
same,Activity (% H. + T.) 3 days,Tetranychus urticae [11]; 105 g a.i./ha,32.2 % H. + T.
same,Activity (% H. + T.) 3 days,Tetranychus urticae [11]; 210 g a.i./ha,40.7 % H. + T.
